Reference: article PMC4882559, “Novel Azetidine-Containing TZT-1027 Analogues as Antitumor Agents” (Marine Drugs, 2016)

Key:
[1] = system: A549 human lung carcinoma cell lines; experiment: Cancer cell proliferation inhibition (MTT assay), A549; format: cell-based
Procedure: (§1) The following cell lines were used for the screening stage, obtained from American Type Culture Collection (ATCC, Manassas, VA, USA); HCT116 human colon cancer cells and A549 human lung carcinoma cell lines were cultured in RPMI 1640 medium supplemented with 10% FBS. Cell cultures were maintained in a humidified atmosphere of 5% CO2 at 37 °C. Cells were seeded at 2000 cells per well in 96-well plates in a volume of 200 μL per well. The test compounds were dissolved in DMSO and diluted with culture medium to different concentrations. After seeding for 24 h, the medium was removed, and […] of the test compound solution was added in duplicates and incubation continued for 72 h at 37 °C in a humidified atmosphere containing 5% CO2. Control cells were treated with vehicle alone. During the last 4 h of incubation, the cells were exposed to tetrazolium dye (MTT) solution (5 mg/mL, […] per well). The generated formazan crystals were dissolved in […] of dimethyl sulfoxide (DMSO), and the absorbance was read spectrophotometrically at 570 nm using an enzyme-linked immunosorbent assay plate reader. The data was calculated using Graph Pad Prism version 5.0 (GraphPad Softwrae, La Jolla, CA, USA). The IC50s were fitted using a non-linear regression model with a sigmoidal dose response.

[2] = system: HCT116 human colon cancer cells; experiment: Cancer cell proliferation inhibition (MTT assay), HCT116; format: cell-based; settings: Homo sapiens, HCT-116, 72 h incubation, mean ± SD of at least three independent experiments
Procedure: as §1

[3] = dose of 4 mg/kg; cited from earlier work
Procedure: Further in vivo antitumor activities of 1a was evaluated in A549 xenograft models in mice via tail vein intravenous injection for 22 days. […] Considering of that, the maximum dose of 1a was chosen as 5 mg/kg. […] However, compound 1a could not achieve effective inhibition at all the dose levels (Figure 3b). TZT-1027 (2 mg/kg/day) inhibited tumor growth by 61% over the 22-day administration schedule, howe ... || In summary, we described the design and synthesis of nine TZT-1027 analogues based on the conformation restriction strategy. 3-Aryl-zetidines were used to replace the phenylethyl group at C-terminus. Two human cancer cell lines (A549, HCT116) were used to evaluate the potency of the synthesized compounds. […] Compound 1a could not achieve effective inhibition in A549 xenograft models at different dose levels.

Human A549 xenograft = experiment: In vivo efficacy study, A549 xenograft model; set-up: species or system BALB/c athymic mice; settings: 2 mg/kg iv once a day; for Tumor volume: n = 6, mean (SD on next line); for Relative tumor volume: RTV = Vt/V0, n = 6, mean ± SD
Excerpt: Pathogen-free, 4–6 week-old, female BALB/c athymic mice (Shanghai SCXK Laboratory Animal Technology Co. Ltd., Shanghai, China) were housed under sterile conditions. Human A549 xenograft was established in the right flanks of athymic mice according to the protocol of the National Cancer Institute. When the tumor reached a volume of 100 mm^3, the mice were randomly assigned into control (n = 6 per group) and treatment groups (n = 6 per group). Control group were given lactate buffer, and treatment groups were iv administered with tested compounds. The size of tumor was measured individually on the indicated days. Tumor volume (V) was calculated as V = (length × width^2)/2. The individual relative tumor volume (RTV) was calculated as follows: RTV = Vt/V0, where Vt represented the last tumor size measurement and V0 represented the pre-dosing tumor size measurement. The animal experimental protocols were approved by the Animal Ethics Committee of School of Pharmacy, Fudan University and the mice were treated in accordance with international animal ethics guidelines.

[4] = Liver microsomes metabolic stability, human
[5] = Liver microsomes metabolic stability, mouse
[6] = Liver microsomes metabolic stability, rat

With CC[C@H](C)[C@@H]([C@@H](CC(=O)N1CCC[C@H]1[C@H](OC)[C@@H](C)C(=O)N1CC(c2ccccc2C(C)C)C1)OC)N(C)C(=O)[C@@H](NC(=O)[C@@H](C(C)C)N(C)C)C(C)C [1d, (S)-2-((R)-2-(Dimethylamino)-3-methylbutanamido)-N-((3R,4S,5S)-1-((S)-2-((1R,2R)-3-(3-(2-isopropylphenyl)azetidin-1-yl)-1-methoxy-2-methyl-3-oxopropyl)pyrrolidin-1-yl)-3-methoxy-5-methyl-1-oxoheptan-4-yl)-N,3-dimethylbutanamide] as the molecule, how does the “loss of potency against A549 cell lines” value ([1]; substituted phenyl analogues compared with 1a) read?
Its value is “about 60 fold”.

Which IC50 [2] does the source give for CC(=O)O[C@@]12CO[C@@H]1C[C@H](O)[C@@]1(C)C(=O)[C@H](O)C3=C(C)[C@@H](OC(=O)[C@H](O)[C@@H](NC(=O)OC(C)(C)C)c4ccccc4)C[C@@](O)([C@@H](OC(=O)c4ccccc4)[C@H]21)C3(C)C [Docetaxel, reference compound] here?
Its IC50 is 0.3 ± 0.1 nM.

And the IC50 ([1]; Homo sapiens, A549, MTT assay, 72 h incubation, mean ± SD of at least three independent experiments)?
Its IC50 is 23.5 ± 9.5 nM.

For CC[C@H](C)[C@@H]([C@@H](CC(=O)N1CCC[C@H]1[C@H](OC)[C@@H](C)C(=O)NCCc1ccccc1)OC)N(C)C(=O)[C@@H](NC(=O)[C@H](C(C)C)N(C)C)C(C)C [TZT-1027], which “toxicity of a dose” value [3] is on record?
The value was “seemed to be toxic”.

And the Tumor volume (Human A549 xenograft; day 1)?
Its Tumor volume is 147.31 mm3.

And the Tumor volume (Human A549 xenograft; day 4)?
The Tumor volume was 182.59 mm3.

What about the Relative tumor volume (Human A549 xenograft; day 7) of the same molecule?
Its Relative tumor volume is 1.48 ± 0.64.

And the Tumor volume (Human A549 xenograft; day 7)?
The Tumor volume was 196.64 mm3.

What about the Relative tumor volume (Human A549 xenograft; day 10) of the same molecule?
The Relative tumor volume was 1.73 ± 0.78.

And the Tumor volume (Human A549 xenograft; day 10)?
Its Tumor volume is 232.81 mm3.

What about the Relative tumor volume (Human A549 xenograft; day 13) of the same molecule?
Its Relative tumor volume is 2.09 ± 0.9.

What about the Tumor volume (Human A549 xenograft; day 13) of the same molecule?
Its Tumor volume is 275.81 mm3.

What about the Relative tumor volume (Human A549 xenograft; day 16) of the same molecule?
The Relative tumor volume was 2.3 ± 0.9.

And the Tumor volume (Human A549 xenograft; day 16)?
Its Tumor volume is 301.7 mm3.

And the Relative tumor volume (Human A549 xenograft; day 19)?
Its Relative tumor volume is 2.6 ± 1.33.

And the Tumor volume (Human A549 xenograft; day 19)?
The Tumor volume was 346.59 mm3.

What about the Relative tumor volume (Human A549 xenograft; day 22) of the same molecule?
The Relative tumor volume was 2.66 ± 1.11.

What about the Tumor volume (Human A549 xenograft; day 22) of the same molecule?
The Tumor volume was 363.71 mm3.

Which results are given for O=C(c1ccc(F)cc1)C1CCN(CCn2c(=O)[nH]c3ccccc3c2=O)CC1 [Ketanserin, ketanserin, reference compound]?
Clint ([4]; Human, apparent intrinsic clearance, 1 μM): 39.63 mL/min/kg; half-life at 1 μM ([4]; human, liver microsomes): 43.9 min; Clint ([5]; Mouse, apparent intrinsic clearance, 1 μM): 402.92 mL/min/kg; half-life at 1 μM ([5]; mouse, liver microsomes): 13.5 min; Clint ([6]; Rat, apparent intrinsic clearance, 1 μM): 159.00 mL/min/kg; half-life at 1 μM ([6]; rat, liver microsomes): 15.6 min
